Entries after “also recorded” stand apart in the source; their conditions may differ.
Key:
[1] = system: RhlR activity, P. aeruginosa PAO1/prhII-LVAgfp; test: Rhl QS reporter assay (GFP fluorescence); type: cell-based, Pseudomonas aeruginosa; settings: for RhlR activity: at 1-10× IC50 values for biofilm inhibition; for inhibition of Rhl-QS system: fluorescence dose curves, 12 and 24 h
Procedure: As introduced above, the role of QS in biofilm formation is well documented and therefore the abilities of 7 and 21 to inhibit QS in P. aeruginosa were evaluated. For this purpose, two wild-type P. aeruginosa QS reporter strains were prepared that contain the plasmids plasI-LVAgfp and prhII-LVAgfp. (see: The Examples) These strains report the activity of two intracellular QS receptors in P. aeruginosa (LasR and RhlR) by the production of green fluorescent protein (gfp), allowing for LasR and RhlR activities, and thus QS levels, to be quantified by fluorescence. […] Studies of related 2-ABI derivatives have shown that this class of molecules is bacterial cell permeable, allowing us to surmise that 7 and 21 could act on the Las and Rhl systems intracellularly. […] The precise targets of 7 and 21 that result in QS disruption are not yet known.
To evaluate the activity of compounds 7 and 21 on QS in P. aeruginosa, we prepared two P. aeruginosa QS reporter strains: PAO1/plasI-LVAgfp and PAO1/prhII-LVAgfp. These strains contain the reporter plasmids plasI-LVAgfp and prhII-LVAgfp, respectively, which contain the laslI or rhII promoter sequences fused to LVAgfp. Binding of activated LasR or RhlR to these promoters induces GFP production, which can be quantified by fluorescence and is proportional to the level of LasR or RhlR activation. LVAgfp is an unstable form of GFP with an estimated half-life of 40-60 min, which allows for a more real-time analysis of gene expression (wild-type GFP has a half-life of greater than 1 day). Further, this specific GFP is the variant GFPmut3b that has a shifted excitation maximum near 501 nm (wild-type GFP has an excitation maximum near 395 nm); emission maximum is similar to wild-type GFP at 511 nm (wild-type GFP has emission maximum near 508 nm). Utilizing this GFP variant is key to detection over native fluorescent pigments that are produced in P. aeruginosa and excite near 400 nm and emit near 500 nm. Preparation and analysis of the PAO1/plasI-LVAgfp and PAO1/prhII-LVAgfp reporters are outlined below.
Compounds 7 and 21 were evaluated for their ability to modulate the Las and Rhl systems using the P. aeruginosa PAO1/plasI-LVAgfp and PAO1/prhII-LVAgfp reporters. We used the same exact setup as the static biofilm assay in 96-well microtiter plates for P. aeruginosa with the exception that freezer stocks were streaked on LB/agar with 300 μg/mL Carb. Microtiter plates were prepared similar to dose-response analysis such that final well concentrations upon inoculum addition ranged from 10^x μM where x=3.5, 3, 2.5, 2, 1.5, 1, 0, −1, or −2. Measurements of FL500/540 and OD600 were made at 12 and 24 h, and after 24 h the samples were evaluated for biofilm formation using the CV procedure. […]

[2] = system: P. aeruginosa PAO1 gen-gfp; test: constitutive GFP production (general protein synthesis); type: cell-based, Pseudomonas aeruginosa; settings: 24 h; dose-response
Procedure: Compounds 7 and 21 were tested for their effect on general protein synthesis in P. aeruginosa. In these assays a P. aeruginosa strain that constitutively produced GFP was employed. […] [59]
The constitutively-expressing genomic (gen)-GFP strain, PAO1 gen-gfp, was prepared using the mini-Tn7 transposon system reported by Lambertsen et al. and Koch et al. to introduce the Tn7 element miniTn7-gfp2 into the neutral chromosomal site attTn7 in the PAO1 genome. The Tn7 element miniTn7-gfp2 was chosen for these studies because it encodes for the same GFP variant, GFPmut3b, used in our QS reporters, discussed herein below. However, rather than being an unstable GFP under the control of the laslI or rhII QS-dependent promoter as in the QS reporters, GFP is stable and under the control of the constitutive E. coli lac-promoter derivative PA1/04/03. The use of this strain allows a comparison of QS-dependent and non-QS-dependent gene expression in the presence of 7 and 21.
Compounds 7 and 21 were evaluated for their ability to affect constitutive GFP production in the P. aeruginosa PAO1 gen-gfp strain using the static biofilm assay conditions described above. […] Measurements of FL500/540 and OD600 were made at 24 h, after which the samples were evaluated for biofilm formation using the CV procedure. […]

Compound | RhlR activity [1] | inhibition of Rhl-QS system [1] | effect on constitutive GFP production / protein synthesis [2]
Cc1cc2nc(N)[nH]c2cc1C [Compound 21, 5,6-Dimethyl-2-aminobenzimidazole] | significant reduction | able to inhibit | only inhibit the production of GFP at concentrations where bacterial growth is also inhibited; also recorded: do not simply globally affect protein synthesis
Nc1nc2ccccc2[nH]1 [Compound 7, 2-aminobenzimidazole] | significant reduction | able to inhibit | only inhibit the production of GFP at concentrations where bacterial growth is also inhibited; also recorded: do not simply globally affect protein synthesis

Reference: patent US10292390B2, “Inhibition and dispersion of bacterial biofilms with 2-aminobenzimidazole derivatives” (WISCONSIN ALUMNI RESEARCH FOUNDATION, priority 2011, dated 2019)
